For orientation: MIC means the lowest concentration that inhibits growth of the organism. Broadly, the IC50 is the point on the concentration scale where inhibition reaches its midpoint. One may read the ED50 as the dose that gives a 50% effect, or the effect in half of the subjects.

In patent US11572337B2, “Antibacterial agents: arylalkylcarboxamido phloroglucinols” (Rutgers, The State University of New Jersey, priority 2018, dated 2023) one finds MIC, IC50 and ED50 data, which are given here for 19 compounds.

Experiment [1] concerns Staphylococcus aureus ATCC 12600. The experiment is described as follows: Inhibition of growth of Staphylococcus aureus (spiral gradient endpoint MIC assay). In kind it is cell-based. Particulars: ATCC12600, Mueller-Hinton II cation-adjusted agar, 16 h at 37° C., read-out: in vitro antibacterial activity S. aureus ATCC12600 MIC. From the text:
Minimum inhibitory concentrations (MICs for Staphylococcus aureus ATCC 12600 were quantified using spiral gradient endpoint assays, essentially as described [Wallace, A. and Corkill, J. (1989) Application of the spiral plating method to study antimicrobial action. J. Microbiol. Meths. 10, 303-310; Paton, J., Holt, A., and Bywater, M. (1990) Measurement of MICs of antibacterial agents by spiral gradient endpoint compared with conventional dilution methods. Int. I Exp. Clin. Chemother. 3, 31-38; Schalkowsky S. (1994) Measures of susceptibility from a spiral gradient of drug concentrations. Adv. Exp. Med. Biol. 349, 107-120]. Assays employed exponential-gradient plates containing 150 mm×4 mm Mueller-Hinton II cation-adjusted agar and 0.4-100 μg/ml of test salt. Plates were prepared using an Autoplate 4000 spiral plater (Spiral Biotech, Inc.). Saturated overnight cultures were swabbed radially onto plates, and plates were incubated for 16 h at 37° C. For each culture, the streak length was measured using a clear plastic template (Spiral Biotech, Inc.), the test-salt concentration at the streak endpoint was calculated using the program SGE (Spiral Biotech, Inc.), and the MIC was defined as the calculated test-salt concentration at the streak endpoint.

Experiment [2] concerns the target S. aureus RNA polymerase core enzyme + S. aureus σA (Staphylococcus aureus (strain NCTC 8325 / PS 47), UniProt P47768+Q2G0N5). Briefly: Fluorescence-detected assay of inhibition of Staphylococcus aureus RNA polymerase. In kind it is biochemical. The settings on record: T4 N25 promoter DNA, RiboGreen fluorescence, read-out: RNAP-inhibitory activity S. aureus RNAP IC50. As to the method:
(§1) Fluorescence-detected RNA polymerase assays with E. coli RNA polymerase were performed by a modification of the procedure of Kuhlman et al., 2004 [Kuhlman, P., Duff, H. & Galant, A. (2004) A fluorescence-based assay for multisubunit DNA-dependent RNA polymerases. Anal. Biochem. 324, 183-190]. Reaction mixtures contained […]: […] test salt, 75 nM E. coli RNA polymerase σ^70 holoenzyme, 20 nM 384 bp DNA fragment containing the bacteriophage T4 N25 promoter, 100 μM ATP, 100 μM GTP, 100 μM UTP, 100 μM CTP, 50 mM Tris-HCl, pH 8.0, 100 mM KCl, 10 mM MgCl2, 1 mM DTT, 10 μg/ml bovine serum albumin, and 5.5% glycerol. Reaction components other than DNA and NTPs were pre-incubated for 10 min at 37° C. Reactions were carried out by addition of DNA and incubation for 5 min at 37° C., followed by addition of NTPs and incubation for 60 min at 37° C. DNA was removed by addition of 1 μl 5 mM CaCl2 and 2 U DNaseI (Ambion, Inc.), followed by incubation for 90 min at 37° C. RNA was quantified by addition of 100 μI RiboGreen RNA Quantitation Reagent (Invitrogen, Inc.; 1:500 dilution in Tris-HCl, pH 8.0, 1 mM EDTA), followed by incubation for 10 min at 25° C., followed by measurement of fluorescence intensity [excitation wavelength=485 nm and emission wavelength=535 nm; QuantaMaster QM1 spectrofluorometer (PTI, Inc.)]. IC50 is defined as the concentration of inhibitor resulting in 50% inhibition of RNA polymerase activity.
Fluorescence-detected RNA polymerase assays with S. aureus RNA polymerase were performed as in Example 2.1, using reaction mixtures containing (20 μl): 0-100 nM test salt, 75 nM S. aureus RNA polymerase core enzyme, 300 nM S. aureus σ^A, 20 nM 384 bp DNA fragment containing the bacteriophage T4 N25 promoter, 100 μM ATP, 100 μM GTP, 100 μM UTP, 100 μM CTP, 40 mM Tris-HCl, pH 8.0, 80 mM NaCl, 5 mM MgCl2, 2.5 mM DTT, and 12.7% glycerol. IC50 is defined as the concentration of inhibitor resulting in 50% inhibition of RNA polymerase activity.

The target in experiment [3] is E. coli RNA polymerase σ70 holoenzyme (Escherichia coli (strain K12), UniProt P0A8T7+P0A8V2). The experiment is described as follows: Fluorescence-detected assay of inhibition of Escherichia coli RNA polymerase. In kind it is biochemical. The settings on record: T4 N25 promoter DNA, RiboGreen fluorescence, read-out: RNAP-inhibitory activity E. coli RNAP IC50. As to the method:
as §1

Experiment [4] relates to methicillin-resistant Staphylococcus aureus (MRSA) strain BAA-1707 (USA-400, MW2). The experiment is described as follows: Antibacterial efficacy in mouse model of Staphylococcus aureus systemic infection (peritonitis model). The settings on record: female Swiss Webster mice, intravenous injection 0 h post-infection, dose resulting in 50% survival at 72 h (probit), read-out: in vivo antibacterial activity mouse MRSA peritonitis ED50. As to the method:
Female Swiss Webster mice ([…]) were experimentally infected by intraperitoneal administration of 1×10^7 colony forming units of methicillin-resistant Staphylococcus aureus (MRSA) strain BAA-1707 (USA-400, MW2) in 5% hog gastric mucin. Test compounds in vehicle (5% dimethylacetamide and 4% cremophor EL in 10 mM sodium phosphate, pH 8), positive control (linezolid in vehicle), and negative control (vehicle only), were administered by intravenous injection into a tail vein (200 μl) 0 h post-infection. Identities of test compounds and controls were blinded from personnel performing injections and monitoring survival. The protective dose 50 (PD50) was defined as the test-compound dose resulting in 50% survival at 72 h (calculated using the probit method).

Converted amounts (≈) assume the structure as drawn.

For the compound `O=C(NCCc1ccc(Oc2ccccc2)cc1)c1c(O)cc(O)cc1O` [Compound 0MTK148, 2,4,6-trihydroxy-N-(4-phenoxyphenethyl)benzamide], the minimum inhibitory concentration (MIC) in experiment [1] was determined as 19 µg/mL (≈ 52 µM). Moreover, the half-maximal inhibitory concentration (IC50) in experiment [2] was found to be 3.9 µM; in experiment [3], 0.8 µM. Also, the median effective dose (ED50) in experiment [4] was 2.5 mg/kg.

As for `O=C(NCCc1ccc(Oc2ccc(Cl)cc2)cc1)c1c(O)cc(O)cc1O` [Compound 0MTK183, N-(4-(4-chlorophenoxy)phenethyl)-2,4,6-trihydroxybenzamide], the MIC in experiment [1] turned out to be 6.1 µg/mL (≈ 15.3 µM). The half-maximal inhibitory concentration (IC50) was determined as 14 µM in experiment [2] and 1.7 µM in experiment [3].

For `O=C(NCCCc1ccc(Cl)cc1)c1c(O)cc(O)cc1O` [Compound 0MTK204, N-(3-(4-chlorophenyl)propyl)-2,4,6-trihydroxybenzamide], the MIC in experiment [1] was 27 µg/mL (≈ 83.9 µM). For the same compound, the IC50 in experiment [2] came out at 8 µM; in experiment [3], 7 µM.

As for `O=C(NCCc1ccc(C(F)(F)F)cc1)c1c(O)cc(O)cc1O` [Compound 0MTK207, 2,4,6-trihydroxy-N-(4-(trifluoromethyl)phenethyl)benzamide], the minimal inhibitory concentration (MIC) in experiment [1] is 19 µg/mL (≈ 55.7 µM). For the same compound, the half-maximal inhibitory concentration (IC50) in experiment [2] was determined as 13 µM; in experiment [3], 7.4 µM.

Regarding `O=C(NCCc1ccc(C(F)(F)F)cc1C(F)(F)F)c1c(O)cc(O)cc1O` [Compound 0MTK208, N-(2,4-bis(trifluoromethyl)phenethyl)-2,4,6-trihydroxybenzamide], in experiment [1], the MIC was determined as 11 µg/mL (≈ 26.9 µM). For the same compound, the IC50 in experiment [2] is 5 µM; in experiment [3] it was 7.2 µM.

For `O=C(NCCc1ccc(Cl)cc1)c1c(O)c(Cl)c(O)c(Cl)c1O` [Compound 0MTK221, 3,5-dichloro-N-(4-chlorophenethyl)-2,4,6-trihydroxybenzamide], the minimum inhibitory concentration (MIC) in experiment [1] is more than 40 µg/mL. In addition, the IC50 came out at 98 µM in experiment [2] and 14 µM in experiment [3].

With `O=C(NCCc1ccc(Cl)cc1)c1c(O)cc(O)c(Cl)c1O` [Compound 0MTK222, 3-chloro-N-(4-chlorophenethyl)-2,4,6-trihydroxybenzamide], in experiment [1], the MIC is more than 40 µg/mL. For the same compound, the 50% inhibitory concentration (IC50) in experiment [2] came out at 9 µM; in experiment [3], 6.8 µM.

Take `O=C(NCCc1ccc(C(F)(F)F)cc1)c1c(O)cc(O)c(Cl)c1O` [Compound 0MTK223, 3-chloro-2,4,6-trihydroxy-N-(4-(trifluoromethyl)phenethyl)benzamide]: in experiment [1], the minimum inhibitory concentration (MIC) is more than 40 µg/mL. Also, the 50% inhibitory concentration (IC50) in experiment [2] was 10 µM; in experiment [3] it was 6.6 µM.

In the case of `O=C(NCCc1ccc(C(F)(F)F)cc1)c1c(O)c(Cl)c(O)c(Cl)c1O` [Compound 0MTK224, 3,5-dichloro-2,4,6-trihydroxy-N-(4-(trifluoromethyl)phenethyl)benzamide], in experiment [1], the MIC was more than 40 µg/mL. Moreover, the half-maximal inhibitory concentration (IC50) is more than 100 µM in experiment [2] and 25 µM in experiment [3].

`O=C(NCCc1ccc(Oc2ccccc2)cc1)c1c(O)c(Cl)c(O)c(Cl)c1O` [Compound 0MTK230, 3,5-dichloro-2,4,6-trihydroxy-N-(4-phenoxyphenethyl)benzamide]: in experiment [1], the minimum inhibitory concentration (MIC) was more than 40 µg/mL. For the same compound, the 50% inhibitory concentration (IC50) in experiment [2] turned out to be 35 µM; in experiment [3], 7.7 µM.

As for `O=C(NCCc1ccc(Oc2ccc(F)cc2)cc1)c1c(O)c(Cl)c(O)c(Cl)c1O` [Compound 0MTK231, 3,5-dichloro-N-(4-(4-fluorophenoxy)phenethyl)-2,4,6-trihydroxybenzamide], in experiment [1], the MIC amounted to 33 µg/mL (≈ 73 µM). Moreover, the values for the concentration for half-maximal inhibition (IC50) in experiment [2] and in experiment [3] were 31 µM and 8.4 µM, respectively.

Turning to `O=C(NCCc1ccc(Oc2ccc(Cl)cc2)cc1)c1c(O)cc(O)c(Cl)c1O` [Compound 0MTK232, 3-chloro-N-(4-(4-chlorophenoxy)phenethyl)-2,4,6-trihydroxybenzamide], in experiment [1], the MIC came to 20 µg/mL (≈ 46.1 µM). For the same compound, the values for the concentration for half-maximal inhibition (IC50) in experiment [2] and in experiment [3] were 8 µM and 0.72 µM, respectively.

With `O=C(NCCc1ccc(Oc2ccc(Cl)cc2)cc1)c1c(O)c(Cl)c(O)c(Cl)c1O` [Compound 0MTK233, 3,5-dichloro-N-(4-(4-chlorophenoxy)phenethyl)-2,4,6-trihydroxybenzamide], in experiment [1], the MIC was 6.8 µg/mL (≈ 14.5 µM). In addition, the IC50 in experiment [2] came to 23 µM; in experiment [3], 4.5 µM.

On to `O=C(NCCc1ccc(Oc2cc(Cl)cc(Cl)c2)cc1)c1c(O)cc(O)c(Cl)c1O` [Compound 0MTK237, 3-chloro-N-(4-(3,5-dichlorophenoxy)phenethyl)-2,4,6-trihydroxybenzamide], for which the MIC in experiment [1] worked out at 15 µg/mL (≈ 32 µM). The 50% inhibitory concentration (IC50) in experiment [2] worked out at 3 µM; in experiment [3], 0.31 µM.

Take `O=C(NCCc1ccc(Oc2cc(Cl)cc(Cl)c2)cc1)c1c(O)c(Cl)c(O)c(Cl)c1O` [Compound 0MTK238, 3,5-dichloro-N-(4-(3,5-dichlorophenoxy)phenethyl)-2,4,6-trihydroxybenzamide]: the MIC in experiment [1] stood at 3.2 µg/mL (≈ 6.36 µM). In addition, the IC50 in experiment [2] is 3 µM; in experiment [3] it was 0.77 µM.

As to `O=C(NCCc1ccc(Oc2ccc(F)cc2)cc1)c1c(O)cc(O)c(Cl)c1O` [Compound 0MTK240, 3-chloro-N-(4-(4-fluorophenoxy)phenethyl)-2,4,6-trihydroxybenzamide], the MIC in experiment [1] was more than 40 µg/mL. Moreover, the figures for the IC50 in experiment [2] and in experiment [3] were 15 µM and 2.1 µM, respectively.

As to `O=C(NCCc1ccc(Oc2cccc(Cl)c2)cc1)c1c(O)cc(O)cc1O` [Compound 0MTK256, N-(4-(3-chlorophenoxy)phenethyl)-2,4,6-trihydroxybenzamide], the minimum inhibitory concentration (MIC) in experiment [1] is 9.1 µg/mL (≈ 22.8 µM). The IC50 in experiment [2] was determined as 10 µM; in experiment [3], 0.65 µM.

In the case of `Cc1ccc(Oc2ccc(CCNC(=O)c3c(O)cc(O)cc3O)cc2)cc1` [Compound 0MTK257, 2,4,6-trihydroxy-N-(4-(p-tolyloxy)phenethyl)benzamide], the MIC in experiment [1] was 20 µg/mL (≈ 52.7 µM). The 50% inhibitory concentration (IC50) in experiment [2] worked out at 11 µM; in experiment [3] it was 0.8 µM.

Take `CCC1=C(O)C(CC)(CC)C(=O)C(C(=O)NCCc2ccc(Oc3ccc(F)cc3)cc2)=C1O` [Compound 3RKHTK161, 3,5,5-triethyl-N-(4-(4-fluorophenoxy)phenethyl)-2,4-dihydroxy-6-oxocyclohexa-1,3-dienecarboxamide]: the MIC in experiment [1] came to 2.8 µg/mL (≈ 5.99 µM). Besides, the IC50 in experiment [2] is 13 µM; in experiment [3], 3.3 µM.
